How the values were obtained:
[1] = biological target: T1, activated p38 (Homo sapiens, UniProt Q16539); assay: Inhibition of ATPase activity; format: biochemical; conditions: ATPase activity of activated p38 (60 nM), 30° C., 30 minutes
Method: This assay was carried out in the presence of 10 mM MgCl2, 25 mM β-glycerophosphate, 10% glycerol and 100 mM HEPES buffer at pH 7.6. For a typical Ki determination, the Km for ATP in the ATPase activity of activated p38 reaction was determined in the absence of inhibitor and in the presence of two concentrations of inhibitor. A stock solution was prepared containing all of the above components and activated p38 (60 nM). The stock solution was aliquotted into vials. […] The reaction was initiated by adding various concentrations of ATP and then incubated at 30° C. After 30 minutes, the reactions were quenched with 50 μl of EDTA (0.1 M, final concentration), pH 8.0. The product of p38 ATPase activity, ADP, was quantified by HPLC analysis.
Separation of ADP from ATP was achieved on a reversed phase column (Supelcosil, LC-18, 3 μm, part no. 5–8985) using a binary solvent gradient of following composition: Solvent A—0.1 M phosphate buffer containing 8 mM tetrabutylammonium hydrogen sulfate (Sigma Chemical Co., catalogue no. T-7158), Solvent B—Solvent A with 30% methanol.
Ki was determined from the rate data as a function of inhibitor and ATP concentrations.

[2] = biological target: T1, activated p38; assay: Inhibition of phosphorylation of EGF receptor peptide ("kinase"); format: biochemical; conditions: inhibition of phosphorylation of EGF receptor peptide by activated p38
In short: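 Activated p38 was preincubated with inhibitor for 15 min at room temperature in 100 mM HEPES pH 7.6, 10 mM MgCl2, 25 mM β-glycerophosphate, 10% glycerol, 5% DMSO final. Reaction used 200 μM EGF receptor peptide and 100 μM ATP for 30 min at 30° C. TFA-quenched phosphopeptide was quantified by reverse-phase HPLC.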

[3] = system: LPS induced PGHS-2 expression in PBMCs; assay: Inhibition of LPS-induced prostaglandin endoperoxide synthase-2 (PGHS-2, or COX-2) induction in PBMCs; format: cell-based, human; conditions: PBMCs, 0.2, 2.0 and 20 μM compound, LPS 4 ng/ml, overnight, anti-COX-2 immunoblot
Method: Human peripheral mononuclear cells (PBMCs) were isolated from fresh human blood buffy coats by centrifugation in a Vacutainer CPT (Becton & Dickinson). We seeded 15×10^6 cells in a 6-well tissue culture dish containing RPMI 1640 supplemented with 10% fetal bovine serum, 50 U/ml penicillin, 50 μg/ml streptomycin, and 2 mM L-glutamine. Compound 6 (above) was added at 0.2, 2.0 and 20 μM final concentrations in DMSO. Then we added LPS at a final concentration of 4 ng/ml to induce enzyme expression. The final culture volume was 10 ml/well.
After overnight incubation at 37° C., 5% CO2, the cells were harvested by scraping and subsequent centrifugation, then the supernatant was removed, and the cells were washed twice in ice-cold DPBS (Dulbecco's phosphate buffered saline, BioWhittaker). The cells were lysed on ice for 10 min in 50 μl cold lysis buffer (20 mM Tris-HCl, pH 7.2, 150 mM NaCl, 1% Triton-X-100, 1% deoxycholic acid, 0.1% SDS, 1 mM EDTA, 2% aprotinin (Sigma), 10 μg/ml pepstatin, 10 μg/ml leupeptin, 2 mM PMSF, 1 mM benzamidine, 1 mM DTT) containing 1 μl Benzonase (DNAse from Merck). The protein concentration of each sample was determined using the BCA assay (Pierce) and bovine serum albumin as a standard. Then the protein concentration of each sample was adjusted to 1 mg/ml with cold lysis buffer. […]

[4] = system: IL-6 production in IL-1-stimulated PBMCs; assay: Inhibition of IL-6 production in IL-1-stimulated PBMCs; format: cell-based; conditions: Homo sapiens, PBMC; IL-1b-stimulated PBMCs, ELISA, overnight incubation
Method: (§1) This assay was carried out on PBMCs exactly the same as above except that 50 μl of an IL-1b working stock solution (2 ng/ml in cell culture medium) was added to the assay instead of the (LPS) working stock solution.
(§2) Cell culture supernatants were harvested as described above and analyzed by ELISA for levels of IL-6 (Endogen, #EH2-IL6) and IL-8 (Endogen, #EH2-IL8) according to the instructions of the manufacturer. The ELISA data were used to generate dose-response curves from which IC50 values were derived.

[5] = system: TNF production in LPS-stimulated PBMCs; assay: Inhibition of TNF production in LPS-stimulated PBMCs ("cell"); format: cell-based, human; conditions: Homo sapiens, PBMC
In short: (§3)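 Human PBMCs (4.8×10^6 cells/ml, RPMI1640/10% FBS) pre-treated with inhibitor dilutions, then stimulated with 4 ng/ml LPS final and incubated overnight (12–15 h) at 37 °C/5% CO2. Supernatant IL-1β and TNF-α measured by ELISA; IC50 from dose-response curves.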

[6] = system: IL-8 production in IL-1-stimulated PBMCs; assay: Inhibition of IL-8 production in IL-1-stimulated PBMCs; format: cell-based; conditions: Homo sapiens, PBMC; IL-1b-stimulated PBMCs, ELISA, overnight incubation
Method: as §1, §2

[7] = system: IL-1 production in LPS-stimulated PBMCs; assay: Inhibition of IL-1 production in LPS-stimulated PBMCs ("cell"); format: cell-based, human; conditions: Homo sapiens, PBMC
In short: as §3

[8] = system: IL-6 production in whole blood; assay: Inhibition of IL-6 production in LPS-stimulated whole blood ("WB"); format: cell-based, human; conditions: Homo sapiens
In short: (§4)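 Anticoagulated whole blood was preincubated with serially diluted compound, then stimulated with 4 ng/ml LPS (final) overnight (12–15 h) at 37° C/5% CO2. Supernatant IL-1b, TNF-α and IL-6 were measured by ELISA and IC50 derived from dose-response curves.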

[9] = system: TNF production in whole blood; assay: Inhibition of TNF production in LPS-stimulated whole blood ("WB"); format: cell-based, human; conditions: Homo sapiens
In short: as §4

[10] = system: IL-1 production in whole blood; assay: Inhibition of IL-1 production in LPS-stimulated whole blood ("WB"); format: cell-based, human; conditions: Homo sapiens
In short: as §4

T1 sequence (Q16539 whole entry): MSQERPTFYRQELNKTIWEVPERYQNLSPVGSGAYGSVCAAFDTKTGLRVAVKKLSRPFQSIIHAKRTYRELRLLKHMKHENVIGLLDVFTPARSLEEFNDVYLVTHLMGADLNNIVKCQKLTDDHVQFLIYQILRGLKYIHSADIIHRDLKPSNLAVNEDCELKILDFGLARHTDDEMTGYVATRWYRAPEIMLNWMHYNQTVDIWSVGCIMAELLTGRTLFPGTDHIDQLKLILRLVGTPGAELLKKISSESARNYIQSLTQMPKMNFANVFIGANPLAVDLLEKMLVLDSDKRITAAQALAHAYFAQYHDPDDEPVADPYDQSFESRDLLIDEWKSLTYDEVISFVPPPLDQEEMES

Compound	Ki [1] [nM]	IC50 [2] [nM]	LPS induced PGHS-2 expression [3]	IC50 [4] [nM]	IC50 [5] [nM]	IC50 [6] [nM]	IC50 [7] [nM]	IC50 [8] [nM]	IC50 [9] [nM]	IC50 [10] [nM]
O=c1ncn2nc(Sc3ccccc3)ccc2c1-c1ccc(F)cc1 [Compound 2]	15000	≥ 1000	–	–	–	–	–	–	–	–
O=c1ncn2nc(Sc3ccccc3)ccc2c1-c1ccc(Cl)cc1Cl [Compound 3]	5000	≥ 1000	–	–	–	–	–	–	–	–
Cc1ccc(Sc2ccc3c(-c4ccc(Cl)cc4Cl)c(=O)ncn3n2)cc1 [Compound 5]	2900	≥ 1000	–	–	–	–	–	–	–	–
O=c1ncn2nc(Sc3ccccc3)ccc2c1-c1c(Cl)cccc1Cl [Compound 6]	400	100 to 1000	inhibits LPS induced PGHS-2 expression in PBMCs	600	≥ 500	850	100 to 500	–	–	–
NC(=O)C(c1cccc(-c2ccccc2)n1)c1c(F)cccc1Cl (stereo not shown) [Compound 306]	–	100 to 1000	–	–	≥ 500	–	100 to 500	≥ 500	≥ 500	≥ 500
NC(=O)C(c1cccc(-c2ccccc2/C=N\O)n1)c1c(Cl)cccc1Cl (stereo not shown) [Compound 307]	–	≤ 100	–	–	≥ 500	–	100 to 500	≥ 500	≥ 500	≥ 500
NC(=O)C(c1cccc(-c2ccc(F)cc2)n1)c1c(Cl)cccc1Cl (stereo not shown) [Compound 309]	–	100 to 1000	–	–	100 to 500	–	100 to 500	≥ 500	≥ 500	≥ 500
Cc1cccc(-c2cccc(C(C(N)=O)c3c(Cl)cccc3Cl)n2)c1 (stereo not shown) [Compound 312]	–	≤ 100	–	–	≥ 500	–	100 to 500	≥ 500	≥ 500	≥ 500
NC(=O)C(c1cccc(-c2ccc(Cl)cc2Cl)n1)c1c(Cl)cccc1Cl (stereo not shown) [Compound 325]	–	≤ 100	–	–	100 to 500	–	≤ 100	≥ 500	≥ 500	≥ 500
NC(=O)C(c1cccc(-c2ccc(F)cc2)n1)c1c(F)cccc1Cl (stereo not shown) [Compound 329]	–	100 to 1000	–	–	≥ 500	–	100 to 500	≥ 500	≥ 500	≥ 500
Cc1cccc(-c2cccc(C(C(N)=O)c3c(F)cccc3Cl)n2)c1 (stereo not shown) [Compound 332]	–	100 to 1000	–	–	≥ 500	–	100 to 500	≥ 500	≥ 500	≥ 500
Cc1ccccc1-c1cccc(C(C(N)=O)c2c(F)cccc2Cl)n1 (stereo not shown) [Compound 335]	–	100 to 1000	–	–	≥ 500	–	≥ 500	≥ 500	≥ 500	≥ 500
NC(=O)C(c1cccc(-c2ccc(Cl)cc2Cl)n1)c1c(F)cccc1Cl (stereo not shown) [Compound 346]	–	100 to 1000	–	–	≥ 500	–	≥ 500	≥ 500	≥ 500	≥ 500
NC(=O)C(c1cccc(-c2ccccc2)n1)c1cc(Cl)ccc1Cl (stereo not shown) [Compound 349]	–	≥ 1000	–	–	≥ 500	–	100 to 500	≥ 500	≥ 500	≥ 500
NC(=O)C(c1cccc(-c2cccc3ccccc23)n1)c1c(Cl)cccc1Cl (stereo not shown) [Compound 362]	–	≤ 100	–	–	100 to 500	–	100 to 500	≥ 500	≥ 500	≥ 500
Cc1cc(F)ccc1-c1cccc(C(C(N)=O)c2c(Cl)cccc2Cl)n1 (stereo not shown) [Compound 363]	–	≤ 100	–	–	100 to 500	–	≤ 100	≥ 500	≥ 500	≥ 500
Cc1cc(F)ccc1-c1cccc(C(C(N)=O)c2c(Cl)cc(N)cc2Cl)n1 (stereo not shown) [Compound 364]	–	≤ 100	–	–	100 to 500	–	≤ 100	≥ 500	≥ 500	≥ 500
NC(=O)N(c1cccc(-c2ccccc2)n1)c1c(Cl)cccc1Cl [Compound 401]	–	≤ 100	–	–	100 to 500	–	100 to 500	≥ 500	≥ 500	≥ 500
Cc1ccccc1-c1cccc(N(C(N)=O)c2c(Cl)cccc2Cl)n1 [Compound 402]	–	≤ 100	–	–	≤ 100	–	≤ 100	≥ 500	≥ 500	≥ 500
Cc1ccccc1-c1cccc(N(C(N)=O)c2c(F)cccc2F)n1 [Compound 403]	–	≤ 100	–	–	≤ 100	–	≤ 100	250 to 500	≥ 500	≥ 500
NC(=O)N(c1cccc(-c2ccc(F)cc2)n1)c1c(F)cccc1F [Compound 404]	–	≤ 100	–	–	≤ 100	–	≤ 100	≥ 500	≥ 500	≥ 500
Cc1cc(F)ccc1-c1cccc(N(C(N)=O)c2c(Cl)cccc2Cl)n1 [Compound 409]	–	≤ 100	–	–	≤ 100	–	≤ 100	250 to 500	≥ 500	≥ 500
Cc1cc(F)ccc1-c1cccc(N(C(N)=O)c2c(F)cccc2F)n1 [Compound 410]	–	≤ 100	–	–	≤ 100	–	≤ 100	250 to 500	250 to 500	250 to 500
Cc1cc(F)ccc1-c1cccc(N(C(N)=O)c2cc3c(cc2Cl)OCO3)n1 [Compound 411]	–	≤ 100	–	–	≤ 100	–	≤ 100	≥ 500	≥ 500	≥ 500

Source: US7205305B2, “Inhibitors of p38” (Vertex Pharmaceuticals Incorporated, priority 1996, dated 2007)
